Among the test systems are KM12 colon; SK-MEL-2 melanoma; UACC-62 melanoma; NCI-H522 lung; DU-145 prostate; SK-MEL-28 melanoma; SR leukemia; MDA-MB-435; LOX IMVI melanoma; HL-60(TB) leukemia.
Common to all, as to experiment: NCI tumour cell line growth inhibition, 48 h

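Values below derive from 48-hour exposures of cells grown in 96-well plates, with endpoints linearly interpolated between the two concentrations bracketing the appropriate inhibition level. Abbreviation: GI50, concentration required for 50% inhibition of growth. Definition used: TGI = concentration required for complete inhibition of growth.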 Where a SMILES comes first, the peptide text is derived from it.

Consider `C/C(N=Nc1nc2ccccc2[nH]1)=C1/C=CC=CN1O`, for which the TGI with KM12 colon, in the assay on SK-MEL-2 melanoma, in the assay with UACC-62 melanoma, with NCI-H522 lung, in the assay with DU-145 prostate and with SK-MEL-28 melanoma was more than 100 µM in each case. Besides, the TGI in the assay on SR leukemia, in the assay with MDA-MB-435 and with LOX IMVI melanoma was more than 100 µM in each case.
Consider `COC1CC(CC2CCC(C)C(C(C)C(=O)O)O2)OC2(OC(C)(C3CCC(C)(C4OC(C5OC(O)(CO)C(C)CC5C)CC4C)O3)CC2C)C1C` (stereo unspecified), for which the TGI with KM12 colon is 11.9 µM; in the assay on SK-MEL-2 melanoma, 5.22 µM; with UACC-62 melanoma, 4.44 µM; with NCI-H522 lung it was 0.591 µM; in the assay on DU-145 prostate it was more than 100 µM; in the assay on HL-60(TB) leukemia it was 1.1 µM. The TGI in the assay on SK-MEL-28 melanoma was 6.66 µM; with SR leukemia, 1.54 µM; in the assay with MDA-MB-435, 11.1 µM; with LOX IMVI melanoma it was 9.81 µM.
With `CSCCC(NC(=O)OCc1ccccc1)P(=O)(O)c1ccccc1` (stereo unspecified), the TGI in the assay on SK-MEL-2 melanoma, in the assay on NCI-H522 lung, in the assay with DU-145 prostate, in the assay on HL-60(TB) leukemia, in the assay with SK-MEL-28 melanoma and with SR leukemia was more than 100 µM throughout. The TGI in the assay on MDA-MB-435 and in the assay on LOX IMVI melanoma was more than 100 µM in each case.
`CCC(C)C(NC(=O)C1CCCN1C(=O)C(CC(C)C)NC(=O)C(CC(C)C)NC(=O)C(N)CC(C)C)C(=O)NC(C(=O)NCC(=O)NC(CC(N)=O)C(=O)NC(CC(C)C)C(=O)NC(CC(C)C)C(=O)NC(CC(C)C)C(N)=O)C(C)C` (stereo unspecified) (H-LLLPIVGNLLL-NH2; configuration not given here): the TGI in the assay with KM12 colon, with SK-MEL-2 melanoma, in the assay on UACC-62 melanoma, in the assay on NCI-H522 lung, in the assay on DU-145 prostate and in the assay with HL-60(TB) leukemia was more than 50 µM each time. Further, the TGI with SK-MEL-28 melanoma, with SR leukemia, in the assay with MDA-MB-435 and in the assay with LOX IMVI melanoma was more than 50 µM in each case.
Regarding `Nc1ccc(-c2nc3cc(F)ccc3s2)cc1CO`, the TGI with KM12 colon was more than 100 µM; with SK-MEL-2 melanoma, more than 62.9 µM; with UACC-62 melanoma, more than 58.7 µM; in the assay with NCI-H522 lung it was more than 100 µM; in the assay with DU-145 prostate, more than 100 µM; in the assay with HL-60(TB) leukemia, more than 100 µM. For the same compound, the TGI in the assay on SK-MEL-28 melanoma, in the assay with MDA-MB-435 and in the assay on LOX IMVI melanoma was more than 100 µM in each case.
For the compound `Cc1nc2ncn3c(c-2c1Cc1ccccc1)NC=C(O)N3`, the TGI in the assay on KM12 colon, with SK-MEL-2 melanoma, in the assay on UACC-62 melanoma, with NCI-H522 lung, with DU-145 prostate and in the assay with HL-60(TB) leukemia was more than 100 µM each time. Further, the TGI with SK-MEL-28 melanoma and in the assay with MDA-MB-435 was more than 100 µM throughout.
With `Cc1cnoc1NS(=O)(=O)c1ccc(Nc2nnc(/C=C/c3c(O)ccc4ccccc34)c(=O)n2N)cc1`, the TGI with UACC-62 melanoma is 52.5 µM; with DU-145 prostate it was more than 100 µM; in the assay on HL-60(TB) leukemia, 22.4 µM; with SR leukemia it was 55.6 µM; in the assay on MDA-MB-435, 76.3 µM; in the assay with LOX IMVI melanoma it was 53.9 µM.
Turning to `CCCN1C(=O)CSC1=Nc1ccc2cc3ccc(N=C4SCC(=O)N4CCC)cc3nc2c1`, the GI50 was 35.9 µM with KM12 colon; more than 100 µM in the assay on SK-MEL-2 melanoma; 85.9 µM with UACC-62 melanoma; 30.8 µM in the assay with DU-145 prostate; more than 100 µM in the assay with HL-60(TB) leukemia; more than 100 µM in the assay with SK-MEL-28 melanoma. Also, the results for the GI50 with SR leukemia, with MDA-MB-435 and in the assay on LOX IMVI melanoma were 98.2 µM, more than 100 µM and more than 100 µM, respectively. In addition, the TGI in the assay on KM12 colon, in the assay with SK-MEL-2 melanoma, in the assay on UACC-62 melanoma, in the assay with DU-145 prostate, in the assay with HL-60(TB) leukemia and in the assay with SK-MEL-28 melanoma was more than 100 µM in each case. The TGI in the assay with SR leukemia, in the assay with MDA-MB-435 and in the assay with LOX IMVI melanoma was more than 100 µM each time.
Turning to `CC(=O)c1ccc2c(c1)N(CCCN1CCN(CCO)CC1)c1ccccc1C2`, the TGI in the assay with KM12 colon is 31.1 µM; in the assay on SK-MEL-2 melanoma, 33.5 µM; in the assay on UACC-62 melanoma, 23 µM; with NCI-H522 lung, 31.2 µM; with DU-145 prostate, 28 µM; in the assay on HL-60(TB) leukemia, 29.2 µM. Moreover, the TGI in the assay on SK-MEL-28 melanoma was found to be 23.8 µM; with MDA-MB-435, 21.7 µM; in the assay on LOX IMVI melanoma, 29.6 µM.
In the case of `NC(=S)N1N=C(c2ccccc2O)CC1c1ccccc1` (stereo unspecified), the TGI was found to be 43.4 µM with KM12 colon; 20.3 µM in the assay on SK-MEL-2 melanoma; 29.7 µM in the assay on UACC-62 melanoma; 18.8 µM in the assay on NCI-H522 lung; 81.3 µM in the assay on DU-145 prostate; 27.4 µM in the assay on HL-60(TB) leukemia. In addition, the TGI was 58.5 µM in the assay on SK-MEL-28 melanoma, 20.2 µM in the assay on MDA-MB-435 and 46.2 µM in the assay on LOX IMVI melanoma.
As to `CC(C)C1OC(=O)/C=C/C=C/C=C/C=C/C=C/CC(O)C(C)C(O)CC(O)CC(O)CC(O)CC(O)CC(O)CC(O)/C=C/C1C` (stereo unspecified), the TGI in the assay with KM12 colon, in the assay with SK-MEL-2 melanoma, in the assay with UACC-62 melanoma, in the assay with NCI-H522 lung, in the assay with SK-MEL-28 melanoma and in the assay on SR leukemia was more than 100 µM each time. Besides, the TGI in the assay with MDA-MB-435 was more than 100 µM. In the assay with HL-60(TB) leukemia, the GI50 was 2.13 µM.
As to `O=C1/C(=C\c2ccc(F)cc2)CCOc2c1ccc1ccccc21`, the TGI with KM12 colon was 31.5 µM; with SK-MEL-2 melanoma, more than 100 µM; in the assay with UACC-62 melanoma it was more than 100 µM; in the assay with NCI-H522 lung, more than 100 µM; in the assay on DU-145 prostate it was 98 µM; with HL-60(TB) leukemia, more than 72.4 µM. Further, the TGI in the assay with SK-MEL-28 melanoma is more than 71.1 µM; in the assay on MDA-MB-435, 74.3 µM; in the assay on LOX IMVI melanoma, 38.4 µM. In addition, the GI50 in the assay with LOX IMVI melanoma is 13 µM.
Turning to `COC(=S)OC1CC(n2cnc3c(N)ncnc32)OC1CO[Si](C)(C)C(C)(C)C` (stereo unspecified), the TGI with KM12 colon was 89.8 µM; in the assay with SK-MEL-2 melanoma, 53.8 µM; in the assay with UACC-62 melanoma, 24 µM; with DU-145 prostate, 38.5 µM; with HL-60(TB) leukemia, more than 100 µM; with SK-MEL-28 melanoma, 96.7 µM. Further, the TGI in the assay with SR leukemia is more than 100 µM; in the assay with MDA-MB-435 it was 42.1 µM; in the assay on LOX IMVI melanoma, more than 100 µM.
`CC(=O)Oc1ccc(CO)cc1OC(C)=O`: the TGI with KM12 colon is more than 100 µM; in the assay on SK-MEL-2 melanoma, more than 100 µM; in the assay with UACC-62 melanoma, more than 100 µM; in the assay on NCI-H522 lung, more than 100 µM; with HL-60(TB) leukemia, 75.2 µM; in the assay on SK-MEL-28 melanoma it was more than 100 µM. Further, the TGI in the assay with SR leukemia and in the assay on LOX IMVI melanoma was more than 100 µM in each case.

The values are drawn from PubChem BioAssay (NCI).
